Tested on: Nrf2
Assay: Nrf2-ARE reporter-HepG2 stable cell line luciferase reporter assay for activators of Nrf2
Format: cell-based
Settings: Nrf2-ARE reporter-HepG2 cells, from dose-response curves; read-out: EC50, concentration that produced 50% activation of Nrf2
Experimental: A Nrf2-ARE reporter-HepG2 stable cell line (BPS Bioscience, San Diego, Calif.) is grown in a humidified atmosphere at 37° C. in 5% CO295% air. The cells are maintained in MEM medium with Earles balanced salts and L-glutamine supplemented with 10% fetal bovine serum (FBS), 1 mM sodium pyruvate, 1% non-essential amino acids, 100 units/ml penicillin, 100 μg/ml streptomycin, and 400 μg/ml Geneticin. One day prior to treatment, the Nrf2-ARE cells are plated into 24-well cell culture plates at approximately 30% confluency in the above media without Geneticin. The following day, fresh media with or without substituted trans stilbene or sulforaphane is applied to the cells. DMSO concentrations are kept at 0.1%. The cells are again placed in a humidified atmosphere at 37° C. in 5% CO2/95% air for 5 hours. Plate wells are gently washed with phosphate buffered saline (PBS) pH 7.4 and lysed with 1× passive lysis buffer (Promega, Madison, Wis., USA). The subsequent lysates are analyzed with the Luciferase Assay System (Promega) utilizing a GloMax 20/20 luminometer (Promega, Sunnyvale, Calif., USA). The firefly luciferase relative light units are normalized to protein (mg/ml) with BCATM Protein Assay Kit protein (Pierce, Rockford, Ill., USA)
For `Oc1ccc(C=Cc2cc(O)cc(O)c2)cc1` [Resveratrol, resveratrol], the EC50 was 5.4 µM. With `C[S+]([O-])CCCCN=C=S` (centres unmarked) [sulforaphane] the EC50 was 1.2 µM.

Same assay, conditions: Nrf2-ARE reporter-HepG2 cells, screened at 15 μM
With `COc1cccc(/C=C/c2ccc(C(F)(F)F)cc2)c1OC` [trans stilbene 54, (E)-1,2-Dimethoxy-3-(4-(trifluoromethyl)styryl)benzene] the “fold activation (extent of activation) of Nrf2” value was 65.5 fold.

Tested on: not given
Assay: not given
Settings: not given
In the case of `Fc1ccc(/C=C/c2ccccc2F)c(F)c1` [trans stilbene 36, (E)-2,4-Difluoro-1-(2-fluorostyryl)benzene], the melting point is reported as 84 to 85 °C. `COc1ccc(OC)c(/C=C/c2ccc(F)cc2)c1` [trans stilbene 18, (E)-2-(4-Fluorostyryl)-1,4-dimethoxybenzene] gave a melting point of 58 to 59 °C. In the case of `Fc1ccc(/C=C/c2ccccc2F)cc1F` [trans stilbene 24, (E)-1,2-Difluoro-4-(2-fluorostyryl)benzene], the melting point is reported as 85 to 86 °C. `COc1ccccc1/C=C/c1ccccc1F` [trans stilbene 10, (E)-1-Fluoro-2-(2-methoxystyryl)benzene] showed a melting point of 34 to 35 °C. With `Fc1cccc(/C=C/c2ccc(F)cc2F)c1` [trans stilbene 35, (E)-2,4-Difluoro-1-(3-fluorostyryl)benzene] the melting point was 60 to 61 °C. Work on `Fc1ccc(/C=C/c2cc(F)ccc2F)cc1` [trans stilbene 40, (E)-1,4-Difluoro-2-(4-fluorostyryl)benzene] yielded a melting point of 76 to 77 °C. `COc1cccc(/C=C/c2ccc(C(F)(F)F)cc2)c1OC` [trans stilbene 54, (E)-1,2-Dimethoxy-3-(4-(trifluoromethyl)styryl)benzene] gave a melting point of 67 to 69 °C. In the case of `COc1cccc(/C=C/c2ccc(F)cc2)c1OC` [trans stilbene 17, (E)-1-(4-Fluorostyryl)-2,3-dimethoxybenzene], the melting point is reported as 50 to 51 °C. `Cc1ccc(/C=C/c2ccc(F)cc2F)cc1` [trans stilbene 37, (E)-2,4-Difluoro-1-(4-methylstyryl)benzene] gave a melting point of 72 to 73 °C. With `COc1cccc(/C=C/c2ccccc2OC)c1` [trans stilbene 49, (E)-1-Methoxy-2-(3-methoxystyryl)benzene] the melting point was 49 to 50 °C. With `COc1cccc(/C=C/c2ccc(C)cc2)c1OC` [trans stilbene 48, (E)-1,2-Dimethoxy-3-(4-methylstyryl)benzene] the melting point was 38 to 40 °C. Work on `Fc1cccc(/C=C/c2ccc(F)c(F)c2)c1` [trans stilbene 30, (E)-1,2-Difluoro-4-(3-fluorostyryl)benzene] yielded a melting point of 48 to 49 °C. For `COc1ccc(/C=C/c2cc(F)ccc2F)cc1` [trans stilbene 23, (E)-1,4-Difluoro-2-(4-methoxystyryl)benzene], the melting point was 109 to 110 °C. In the case of `COc1ccc(/C=C/c2ccc(F)c(F)c2)cc1` [trans stilbene 26, (E)-1,2-Difluoro-4-(4-methoxystyryl)benzene], the melting point is reported as 73 to 74 °C. `COc1cccc(/C=C/c2cc(OC)ccc2OC)c1` [trans stilbene 50, (E)-1,4-Dimethoxy-2-(3-methoxystyryl)benzene] showed a melting point of 48 to 49 °C. Work on `Fc1cccc(/C=C/c2cc(F)ccc2F)c1` [trans stilbene 34, (E)-1,4-Difluoro-2-(3-fluorostyryl)benzene] yielded a melting point of 73 to 74 °C. With `Cc1ccc(/C=C/c2ccc(F)c(F)c2)cc1` [trans stilbene 22, (E)-1,2-Difluoro-4-(4-methylstyryl)benzene] the melting point was 90 to 92 °C.
